Values belong to the compound of their own block, whether it stands above or below them.
Tests used:
[1] = Displacement of [Phe13, [125I]Tyr19]-MCH from human MCHR1 E4Q/A5T double mutant expressed in HEK293 cell membranes after 90 mins by scintillation counting analysis
[2] = Fraction unbound in Sprague-Dawley rat plasma at 15 mg/kg, po qd; assay type: ADME, organism-based
[3] = Lipophilicity, log P of the compound by HPLC analysis; assay type: physicochemical
[4] = Drug uptake in Sprague-Dawley rat brain at 15 mg/kg, po qd measured at 20 hrs post dose; assay type: ADME, organism-based; details: read-out: Drug uptake
[5] = Plasma concentration in Sprague-Dawley rat at 15 mg/kg, po qd measured at 20 hrs post dose; assay type: ADME, organism-based
Rattus norvegicus [6] = assay: Antiobesity activity in Sprague-Dawley rat assessed as body weight loss at 15 mg/kg, po qd administered 1 hr prior to onset of dark cycle measured for 7 days relative to vehicle-treated control; assay type: functional
[7] = molecular target: T1, Melanin-concentrating hormone receptor 1 (Rattus norvegicus, UniProt P97639); assay: Antagonist activity at rat MCHR1 assessed as 2-(4-chlorophenyl)-5-(4-(2-hydroxy-2-methylpropoxy)-3-methoxyphenyl)-4,5-dihydropyrrolo[3,4-c]pyrazol-6(2H)-one
Rattus norvegicus [8] = assay: Antiobesity activity in Sprague-Dawley rat assessed as 2-(4-chlorophenyl)-5-(4-(2-hydroxy-2-methylpropoxy)-3-methoxyphenyl)-4,5-dihydropyrrolo[3,4-c]pyrazol-6(2H)-one-mediated body weight loss at 30 mg/kg, po qd administered 1 hr prior to onset of dark cycle measured for 4 days relative to vehicle-treated control; assay type: functional
Plasma [9] = assay: Fraction unbound in Sprague-Dawley rat plasma assessed as 2-(4-chlorophenyl)-5-(4-(2-hydroxy-2-methylpropoxy)-3-methoxyphenyl)-4,5-dihydropyrrolo[3,4-c]pyrazol-6(2H)-one at 30 mg/kg, po qd; assay type: ADME, organism-based; details: in vivo
Brain [10] = assay: Drug uptake in Sprague-Dawley rat brain assessed as 2-(4-chlorophenyl)-5-(4-(2-hydroxy-2-methylpropoxy)-3-methoxyphenyl)-4,5-dihydropyrrolo[3,4-c]pyrazol-6(2H)-one at 30 mg/kg, po qd measured at 20 hrs post dose; assay type: ADME, organism-based; details: in vivo, read-out: Drug uptake
Plasma [11] = assay: Plasma concentration in Sprague-Dawley rat assessed as 2-(4-chlorophenyl)-5-(4-(2-hydroxy-2-methylpropoxy)-3-methoxyphenyl)-4,5-dihydropyrrolo[3,4-c]pyrazol-6(2H)-one at 30 mg/kg, po qd measured at 20 hrs post dose; assay type: ADME, organism-based; details: in vivo
[12] = molecular target: Melanin-concentrating hormone receptor 1 (Homo sapiens, UniProt Q99705); assay: Antagonist activity at human MCHR1 expressed in HEK293 cells assessed as inhibition of MCH-stimulated Ca2+ influx preincubated for 120 mins followed by MCH challenge by FLIPR assay; assay type: functional, cell-based
hERG (KCNH2) [13] = molecular target: T2, hERG (KCNH2) (Homo sapiens, UniProt Q12809); assay: Inhibition of human ERG expressed in CHO cells at 0.3 uM by automated whole-cell patch clamp electrophysiology system relative to control; assay type: cell-based; details: CHO cells expressing human ERG
[14] = Plasma concentration in Sprague-Dawley rat at 10 mg/kg, po qd measured at 20 hrs post dose; assay type: ADME, organism-based
[15] = Ratio of unbound concentration in Sprague-Dawley rat brain at 10 mg/kg, po qd to Ki for rat MCHR1; assay type: ADME, organism-based; details: in vivo
[16] = Fraction unbound in Sprague-Dawley rat plasma at 1 mg/kg, po qd; assay type: ADME, organism-based
Rattus norvegicus [17] = assay: Antiobesity activity in Sprague-Dawley rat assessed as body weight loss at 10 mg/kg, po qd administered 1 hr prior to onset of dark cycle measured for 7 days relative to vehicle-treated control; assay type: functional
Brain [18] = assay: Drug uptake in Sprague-Dawley rat brain at 1 mg/kg, po qd measured at 20 hrs post dose; assay type: ADME, organism-based; details: in vivo, BLD = below limit of detection
[19] = molecular target: T1, Melanin-concentrating hormone receptor 1; assay: Antagonist activity at rat MCHR1
[20] = Plasma concentration in Sprague-Dawley rat at 1 mg/kg, po qd measured at 20 hrs post dose; assay type: ADME, organism-based
[21] = Plasma concentration in Sprague-Dawley rat at 3 mg/kg, po qd measured at 20 hrs post dose; assay type: ADME, organism-based
[22] = Ratio of unbound concentration in Sprague-Dawley rat brain at 3 mg/kg, po qd to Ki for rat MCHR1; assay type: ADME, organism-based; details: in vivo
[23] = Drug uptake in Sprague-Dawley rat brain at 3 mg/kg, po qd measured at 20 hrs post dose; assay type: ADME, organism-based; details: read-out: Drug uptake
Rattus norvegicus [24] = assay: Antiobesity activity in Sprague-Dawley rat assessed as body weight loss at 3 mg/kg, po qd administered 1 hr prior to onset of dark cycle measured for 7 days relative to vehicle-treated control; assay type: functional
Rattus norvegicus [25] = assay: Antiobesity activity in Sprague-Dawley rat assessed as body weight loss at 1 mg/kg, po qd administered 1 hr prior to onset of dark cycle measured for 7 days relative to vehicle-treated control; assay type: functional
hERG (KCNH2) [26] = molecular target: T2, hERG (KCNH2); assay: Inhibition of human ERG expressed in CHO cells at 1 uM by automated whole-cell patch clamp electrophysiology system relative to control; assay type: cell-based; details: CHO cells expressing human ERG
[27] = Drug uptake in Sprague-Dawley rat brain at 10 mg/kg, po qd measured at 20 hrs post dose; assay type: ADME, organism-based; details: read-out: Drug uptake
[28] = Fraction unbound in Sprague-Dawley rat plasma at 10 mg/kg, po qd; assay type: ADME, organism-based
[29] = Fraction unbound in Sprague-Dawley rat plasma at 3 mg/kg, po qd; assay type: ADME, organism-based
[30] = molecular target: Voltage-gated inwardly rectifying potassium channel KCNH2 (Homo sapiens, UniProt Q12809); assay: Inhibition of human ERG expressed in CHO cells by automated whole-cell patch clamp electrophysiology system; assay type: cell-based
Brain [31] = assay: Drug uptake in Sprague-Dawley rat brain assessed as 6-(4-chlorophenyl)-3-(4-(2-hydroxy-2-methylpropoxy)-3-methoxyphenyl)thieno[3,2-d]pyrimidin-4(3H)-one at 10 mg/kg, po qd measured at 20 hrs post dose; assay type: ADME, organism-based; details: in vivo
[32] = Ratio of drug level in brain to plasma in Sprague-Dawley rat assessed as 6-(4-chlorophenyl)-3-(4-(2-hydroxy-2-methylpropoxy)-3-methoxyphenyl)thieno[3,2-d]pyrimidin-4(3H)-one at 10 mg/kg, po qd measured at 20 hrs post dose
[33] = Ratio of unbound concentration in Sprague-Dawley rat brain assessed as 6-(4-chlorophenyl)-3-(4-(2-hydroxy-2-methylpropoxy)-3-methoxyphenyl)thieno[3,2-d]pyrimidin-4(3H)-one at 10 mg/kg, po qd to Ki for rat MCHR1 assessed as 6-(4-chlorophenyl)-3-(4-(2-hydroxy-2-methylpropoxy)-3-methoxyphenyl)thieno[3,2-d]pyrimidin-4(3H)-one; assay type: ADME, organism-based; details: in vivo
Plasma [34] = assay: Fraction unbound in Sprague-Dawley rat plasma assessed as 6-(4-chlorophenyl)-3-(4-(2-hydroxy-2-methylpropoxy)-3-methoxyphenyl)thieno[3,2-d]pyrimidin-4(3H)-one at 10 mg/kg, po qd; assay type: ADME, organism-based; details: in vivo
[35] = molecular target: T1, Melanin-concentrating hormone receptor 1; assay: Antagonist activity at rat MCHR1 assessed as 6-(4-chlorophenyl)-3-(4-(2-hydroxy-2-methylpropoxy)-3-methoxyphenyl)thieno[3,2-d]pyrimidin-4(3H)-one
Plasma [36] = assay: Plasma concentration in Sprague-Dawley rat assessed as 6-(4-chlorophenyl)-3-(4-(2-hydroxy-2-methylpropoxy)-3-methoxyphenyl)thieno[3,2-d]pyrimidin-4(3H)-one at 10 mg/kg, po qd measured at 20 hrs post dose; assay type: ADME, organism-based; details: in vivo
Rattus norvegicus [37] = assay: Antiobesity activity in Sprague-Dawley rat assessed as 6-(4-chlorophenyl)-3-(4-(2-hydroxy-2-methylpropoxy)-3-methoxyphenyl)thieno[3,2-d]pyrimidin-4(3H)-one-mediated body weight loss at 10 mg/kg, po qd administered 1 hr prior to onset of dark cycle measured for 7 days relative to vehicle-treated control; assay type: functional

T2 sequence (Q12809 whole entry): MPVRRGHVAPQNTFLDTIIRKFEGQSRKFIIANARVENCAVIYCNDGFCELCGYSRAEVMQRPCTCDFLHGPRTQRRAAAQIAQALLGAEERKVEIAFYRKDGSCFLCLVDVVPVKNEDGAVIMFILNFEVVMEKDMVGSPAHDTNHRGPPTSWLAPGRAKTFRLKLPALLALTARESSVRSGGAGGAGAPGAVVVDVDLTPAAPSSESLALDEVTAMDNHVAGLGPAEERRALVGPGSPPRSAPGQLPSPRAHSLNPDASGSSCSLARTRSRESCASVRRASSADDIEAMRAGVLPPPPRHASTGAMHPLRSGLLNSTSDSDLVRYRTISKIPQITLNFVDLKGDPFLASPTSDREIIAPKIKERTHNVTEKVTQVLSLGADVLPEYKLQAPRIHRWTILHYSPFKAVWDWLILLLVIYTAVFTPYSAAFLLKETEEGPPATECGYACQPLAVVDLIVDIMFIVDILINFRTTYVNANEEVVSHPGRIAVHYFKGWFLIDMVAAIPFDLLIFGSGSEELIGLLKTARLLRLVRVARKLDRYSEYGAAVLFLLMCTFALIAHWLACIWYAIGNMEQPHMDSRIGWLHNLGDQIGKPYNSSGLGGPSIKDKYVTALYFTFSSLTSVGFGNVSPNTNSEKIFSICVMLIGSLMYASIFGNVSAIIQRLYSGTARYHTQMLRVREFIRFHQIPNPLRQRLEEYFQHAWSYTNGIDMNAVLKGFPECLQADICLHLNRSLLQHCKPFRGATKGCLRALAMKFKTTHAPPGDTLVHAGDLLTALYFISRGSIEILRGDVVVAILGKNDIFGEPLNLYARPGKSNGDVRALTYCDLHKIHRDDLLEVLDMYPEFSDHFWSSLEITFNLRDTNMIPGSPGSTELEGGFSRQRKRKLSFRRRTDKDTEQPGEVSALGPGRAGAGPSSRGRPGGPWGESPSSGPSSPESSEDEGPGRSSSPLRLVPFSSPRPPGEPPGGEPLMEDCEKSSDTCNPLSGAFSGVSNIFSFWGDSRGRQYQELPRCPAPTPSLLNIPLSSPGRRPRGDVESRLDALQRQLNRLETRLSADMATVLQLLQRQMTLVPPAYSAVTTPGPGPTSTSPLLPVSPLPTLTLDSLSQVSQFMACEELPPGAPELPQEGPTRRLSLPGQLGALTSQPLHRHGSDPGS
T1 sequence (P97639 whole entry): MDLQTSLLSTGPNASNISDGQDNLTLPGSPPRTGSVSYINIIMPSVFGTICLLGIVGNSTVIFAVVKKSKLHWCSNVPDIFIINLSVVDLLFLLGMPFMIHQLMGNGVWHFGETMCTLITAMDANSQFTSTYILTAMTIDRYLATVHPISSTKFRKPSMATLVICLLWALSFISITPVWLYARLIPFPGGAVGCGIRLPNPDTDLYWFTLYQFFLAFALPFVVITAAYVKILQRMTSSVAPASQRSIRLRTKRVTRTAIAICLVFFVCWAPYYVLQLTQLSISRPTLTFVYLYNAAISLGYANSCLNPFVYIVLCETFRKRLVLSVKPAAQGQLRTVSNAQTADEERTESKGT
Chain of Melanin-concentrating hormone receptor 1 (Homo sapiens, UniProt Q99705) (Q99705 whole entry): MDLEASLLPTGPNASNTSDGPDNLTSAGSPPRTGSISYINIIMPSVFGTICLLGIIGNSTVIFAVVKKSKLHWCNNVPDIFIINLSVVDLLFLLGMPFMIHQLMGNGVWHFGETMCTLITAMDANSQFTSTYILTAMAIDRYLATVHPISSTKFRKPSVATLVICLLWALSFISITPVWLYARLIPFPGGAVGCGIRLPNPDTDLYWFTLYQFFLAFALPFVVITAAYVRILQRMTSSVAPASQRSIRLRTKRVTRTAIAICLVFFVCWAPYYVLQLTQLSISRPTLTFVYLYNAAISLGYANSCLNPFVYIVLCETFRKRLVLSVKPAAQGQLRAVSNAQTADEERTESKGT
Chain of Voltage-gated inwardly rectifying potassium channel KCNH2 (Q12809 whole entry): as the sequence (Q12809 whole entry) above

- fraction unbound [2]: 0.012
- logP [3]: 3.5
- concentration at 20 h [4]: 654 nM
- concentration at 20 h [5]: 378 nM
SMILES: COc1cc(-n2cnc3cc(-c4ccc(Cl)cc4)sc3c2=O)ccc1OCCN1CCCC1
- Ki [1]: 1 nM
- Activity (Rattus norvegicus [6]): 8.7%

- Ki [7]: 3.8 nM
- Fu (Plasma [9]): 1%
- concentration (Brain [10]): 1060 nM
- concentration (Plasma [11]): 2560 nM
SMILES: COc1cc(N2Cc3cn(-c4ccc(Cl)cc4)nc3C2=O)ccc1OCC(C)(C)OC(=O)CN
- Activity (Rattus norvegicus [8]): 1.8%

SMILES: COc1cc(N2Cc3cn(-c4ccc(Cl)cc4)nc3C2=O)ccc1OCC(C)O (configuration not stated)
- Ki [1]: 13 nM

- IC50 [12]: 1170 nM
SMILES: COc1cc(N2Cc3cn(-c4ccc(Cl)cc4)nc3C2=O)ccc1OCC(C)(C)O
- Ki [1]: 8 nM

SMILES: COc1cc(N2Cc3cn(-c4ccc(Cl)cc4)nc3C2=O)ccc1OC[C@H](O)C1CC1
- Ki [1]: 9 nM

SMILES: COc1cc(N2Cc3cn(-c4ccc(Cl)cn4)nc3C2=O)ccc1OCC(C)(C)O
- Ki [1]: 44 nM

- IC50 [12]: 3060 nM
- logP [3]: 2.8
SMILES: COc1cc(N2Cc3cn(-c4ccc(Cl)cc4)nc3C2=O)ccc1OCCN1CCCC1
- Ki [1]: 0.42 nM
- inhibition at 0.3 µM (hERG (KCNH2) [13]): 58%

SMILES: COc1cc(N2Cc3nn(-c4ccc(Cl)cc4)cc3C2=O)ccc1OCC(C)O (configuration not stated)
- Ki [1]: 334 nM

SMILES: COc1cc(N2Cc3nn(-c4ccc(Cl)cc4)cc3C2=O)ccc1OCC(C)(C)O
- Ki [1]: 107 nM

SMILES: COc1cc(N2Cc3nn(-c4ccc(Cl)cc4)cc3C2=O)ccc1OC[C@H](O)C1CC1
- Ki [1]: 41 nM

SMILES: COc1cc(N2Cc3nn(-c4ccc(Cl)cc4)nc3C2=O)ccc1OCC(C)(C)O
- Ki [1]: 34 nM

- logP [3]: 3.3
SMILES: COc1cc(N2Cc3nn(-c4ccc(Cl)cc4)nc3C2=O)ccc1OCCN1CCCC1
- Ki [1]: 2.3 nM
- inhibition at 0.3 µM (hERG (KCNH2) [13]): 68%

- concentration at 20 h [14]: 1580 nM
- Ratio [15]: 145
- fraction unbound [16]: 0.042
- Drug uptake (Brain [18]): BLD
- Ki [19]: 0.8 nM
- concentration at 20 h [20]: 131 nM
- IC50 [12]: 241 nM
- concentration at 20 h [21]: 574 nM
- Ratio [22]: 39
- concentration at 20 h [23]: 739 nM
- concentration at 20 h [27]: 2770 nM
- fraction unbound [28]: 0.042
- fraction unbound [29]: 0.042
SMILES: CN[C@H]1CCN(c2ccc(N3Cc4cn(-c5ccc(Cl)cc5)nc4C3=O)cn2)C1
- Ki [1]: 0.96 nM
- Activity (Rattus norvegicus [17]): 7.5%
- Activity (Rattus norvegicus [24]): 3.8%
- Activity (Rattus norvegicus [25]): 2.2%
- inhibition at 1 µM (hERG (KCNH2) [26]): 66%

SMILES: CN[C@@H]1CCN(c2ccc(N3Cc4cn(-c5ccc(Cl)cc5)nc4C3=O)cn2)C1
- Ki [1]: 1.3 nM
- inhibition at 1 µM (hERG (KCNH2) [26]): 50%

SMILES: CN(C)[C@H]1CCN(c2ccc(N3Cc4cn(-c5ccc(Cl)cc5)nc4C3=O)cn2)C1
- Ki [1]: 0.7 nM
- inhibition at 1 µM (hERG (KCNH2) [26]): 50%

SMILES: N[C@H]1CCN(c2ccc(N3Cc4cn(-c5ccc(Cl)cc5)nc4C3=O)cn2)C1
- Ki [1]: 2.1 nM
- inhibition at 1 µM (hERG (KCNH2) [26]): 58%

SMILES: CNC1CCN(c2ccc(N3Cc4cn(-c5ccc(Cl)cc5)nc4C3=O)cc2)C1 (configuration not stated)
- Ki [1]: 0.8 nM
- inhibition at 0.3 µM (hERG (KCNH2) [13]): 51%

SMILES: CC(=O)N(C)C1CCN(c2ccc(N3Cc4cn(-c5ccc(Cl)cc5)nc4C3=O)cn2)C1 (configuration not stated)
- Ki [1]: 6.5 nM
- inhibition at 1 µM (hERG (KCNH2) [26]): 23%

SMILES: CC(C)(C)NC1CCN(c2ccc(N3Cc4cn(-c5ccc(Cl)cc5)nc4C3=O)cn2)C1 (configuration not stated)
- Ki [1]: 2.7 nM
- inhibition at 1 µM (hERG (KCNH2) [26]): 71%

SMILES: COc1cc(N2Cc3cn(-c4ccc(Cl)cc4)nc3C2=O)ccc1N1CC[C@@H](O)C1
- Ki [1]: 7.1 nM
- IC50 [30]: > 80 µM

SMILES: COc1cc(N2Cc3cn(-c4ccc(Cl)cc4)nc3C2=O)ccc1N1C[C@H](O)[C@@H](O)C1
- Ki [1]: 11 nM
- inhibition at 1 µM (hERG (KCNH2) [26]): < 5%
- IC50 [30]: > 30 µM

- IC50 [12]: 13 nM
SMILES: COc1cc(-n2cnc3cc(-c4ccc(Cl)cc4)sc3c2=O)ccc1OCC(C)(C)O
- Ki [1]: 7.9 nM

- Drug uptake (Brain [31]): 1610 nM
- BPR [32]: 1.7
- Ratio [33]: 1.6
- Fu (Plasma [34]): 0.7%
- Ki [35]: 7.2 nM
- concentration (Plasma [36]): 546 nM
SMILES: COc1cc(-n2cnc3cc(-c4ccc(Cl)cc4)sc3c2=O)ccc1OCC(C)(C)OC(=O)CN
- Activity (Rattus norvegicus [37]): 8.8%

SMILES: COc1cc(N2Cc3nn(-c4ccc(Cl)cc4)nc3C2=O)ccc1OCC(O)C1CC1 (racemic)
- Ki [1]: 112 nM

— ChEMBL document CHEMBL3588848, “Dihydropyrrolopyrazol-6-one MCHR1 antagonists for the treatment of obesity: Insights on in vivo efficacy from a novel FLIPR assay setup” (Bioorg Med Chem Lett, 2015)
